In US7507727B2, “Substituted quinobenzoxazine analogs and methods of using thereof” (Cylene Pharmaceuticals, Inc., priority 2003, dated 2009) one finds IC50 data, which are given here for 59 compounds.

Each structure is given as a SMILES string.

For the first test, the target named is c-Myc template DNA (c-myc quadruplex). Nature of the test: Quadruplex binding / stop assay (Taq polymerase arrest, capillary electrophoresis). Particulars: read-out: S DATA; Table 1D, stop assay data.
Take `CN1CCCC1CCNC(=O)c1cn2c3c(c(N4CCNC(c5cccnc5)C4)c(F)cc3c1=O)Oc1cc3ccccc3cc1-2` (centres unmarked) [compound 1513]: the IC50 was 1.75 µM.

`O=C(NCCN1CCCC1)c1cn2c3c(c(SCCc4cnccn4)c(F)cc3c1=O)Oc1ccc(Cl)cc1-2` [compound 1783]: the IC50 was over 15 µM.

With `CN1CCCC1CCNC(=O)c1cn2c3c(c(NCCN4CCOCC4)c(F)cc3c1=O)Oc1ccccc1-2` (centres unmarked) [compound 1608], the IC50 was over 15 µM.

For the compound `O=C(NCCC1CCCN1)c1cn2c3c(c(NCCN4CCCC4)ccc3c1=O)Oc1cc3ccccc3cc1-2` (centres unmarked) [compound 1516], the IC50 amounted to 1.75 µM.

For `CCN(CC)CCCC(C)NC(=O)c1cn2c3c(c(N4CCC(c5cnccn5)C4)c(F)cc3c1=O)Oc1cc3ccccc3cc1-2` (centres unmarked) [compound 1719], the IC50 is 3 µM.

Take `CN(C)CCCCNc1ccc2c(=O)c(C(=O)NCCN3CCOCC3)cn3c2c1Oc1cc2ccccc2cc1-3` [compound 1545]: the IC50 is 0.75 µM.

With `CN1CCCC1CCNC(=O)c1cn2c3c(c(F)c(F)cc3c1=O)Oc1cc3ccccc3cc1-2` (centres unmarked) [compound 1738], the IC50 is 2.25 µM.

For the compound `CCC(=O)N1CCN(c2c(F)cc3c(=O)c(C(=O)NCCN4CCCC4)cn4c3c2Oc2cc(Cl)ccc2-4)CC1` [compound 1822], the IC50 came out at 10 µM.

Take `COc1cccc(CCNC(=O)c2cn3c4c(c(N5CCC(N)C5)c(F)cc4c2=O)Oc2cc4ccccc4cc2-3)c1` (centres unmarked) [compound 1698]: the IC50 is over 15 µM.

Consider `NC1CCN(C(=O)c2cn3c4c(c(N5CC6CCCNC6C5)c(F)cc4c2=O)Oc2cc4ccccc4cc2-3)C1` (centres unmarked) [compound 1638], for which the IC50 is 1.75 µM.

Consider `CCN(CC)CCCC(C)NC(=O)c1cn2c3c(c(N4CCC(c5cnccn5)C4)ccc3c1=O)Oc1cc3ccccc3cc1-2` (centres unmarked) [compound 1720], for which the IC50 was found to be 1 µM.

For `O=C(NCCN1CCCC1)c1cn2c3c(c(N4CCN(Cc5ccco5)CC4)c(F)cc3c1=O)Oc1cc(Cl)ccc1-2` [compound 1829], the IC50 is 10 µM.

Turning to `O=C(NCCN1CCCC1)c1cn2c3c(c(SCCc4cnccn4)c(F)cc3c1=O)Oc1cc(Cl)ccc1-2` [compound 1784], the IC50 was over 15 µM.

In the case of `NC1CCN(c2c(F)cc3c(=O)c(C(=O)NCCc4c[nH]c5ccccc45)cn4c3c2Oc2cc3ccccc3cc2-4)C1` (centres unmarked) [compound 1696], the IC50 is over 15 µM.

As to `NCCCCNC(=O)c1cn2c3c(c(NCCN4CCOCC4)c(F)cc3c1=O)Oc1ccccc1-2` [compound 1611], the IC50 was over 15 µM.

As to `C[C@@H](O)CNC(=O)c1cn2c3c(c(N4CCC(N)C4)c(F)cc3c1=O)Oc1cc3ccccc3cc1-2` (some centres unmarked) [compound 1708], the IC50 is over 15 µM.

For the compound `COc1ccc2[nH]cc(CCNC(=O)c3cn4c5c(c(N6CCC(N)C6)c(F)cc5c3=O)Oc3cc5ccccc5cc3-4)c2c1` (centres unmarked) [compound 1699], the IC50 worked out at 1.75 µM.

For the compound `N=C(N)NCCCCNC(=O)c1cn2c3c(c(NCCN4CCCC4)c(F)cc3c1=O)Oc1ccccc1-2` [compound 1633], the IC50 was over 15 µM.

In the case of `CCN(CC)CCCC(C)NC(=O)c1cn2c3c(c(N4CC5CCCNC5C4)ccc3c1=O)Oc1ccccc1-2` (centres unmarked) [compound 1730], the IC50 is over 15 µM.

For the compound `O=C(NCCN1CCCC1)c1cn2c3c(c(N4CCC(c5cnccn5)C4)ccc3c1=O)Oc1ccccc1-2` (centres unmarked) [compound 1722], the IC50 turned out to be 3 µM.

Staying with this test, now noted: read-out: Stop Data c-Myc μM; concentration at which 50% of the DNA was arrested (arrested:full-length 1:1).
For the compound `COc1ccc2[nH]cc(CCNc3c(F)cc4c(=O)c(C(=O)NCCC5CCCN5C)cn5c4c3Oc3cc4ccccc4cc3-5)c2c1` (centres unmarked) [compound 290], the IC50 stood at 1.75 µM.

Regarding `O=C(Nc1ccncc1)c1cn2c3c(c(NCCCN4CCOCC4)c(F)cc3c1=O)Oc1cc3c(cc1-2)oc1ccccc13` [compound 315], the IC50 is 1 µM.

On to `N[C@@H]1CCN(C(=O)c2cn3c4c(c(NCCCN5CCOCC5)c(F)cc4c2=O)Oc2c-3ccc3ccccc23)C1` [compound 83], for which the IC50 was 2.5 µM.

`O=C(c1cn2c3c(c(NCCN4CCCCC4)c(F)cc3c1=O)Oc1cc3ccccc3cc1-2)N1CCOCC1` [compound 115]: the IC50 was found to be 1.75 µM.

In the case of `CCCCOCCCNc1c(F)cc2c(=O)c(C(=O)NCCC3CCCN3C)cn3c2c1Oc1cc2ccccc2cc1-3` (centres unmarked) [compound 1470], the IC50 came to 1.75 µM.

Consider `CN1CCCC1CCNC(=O)c1cn2c3c(c(/N=C4\CCCCN4)c(F)cc3c1=O)Oc1cc3ccccc3cc1-2` (centres unmarked) [compound 253], for which the IC50 turned out to be 1.75 µM.

As for `Nc1c(F)c(NCCCN2CCOCC2)c2c3c1c(=O)c(C(=O)N1CCOCC1)cn3-c1cc3ccccc3cc1O2` [compound 222], the IC50 was 1.75 µM.

Turning to `CN1CCCN(C(=O)c2cn3c4c(c(N5CCC(N)C5)c(F)cc4c2=O)Oc2cc4ccccc4cc2-3)CC1` (centres unmarked) [compound 197], the IC50 was 1.75 µM.

Take `N[C@@H]1CCN(c2c(F)cc3c(=O)c(C(=O)NCCCN4CCOCC4)cn4c3c2Oc2c-4ccc3ccccc23)C1` [compound 103]: the IC50 was determined as 1.8 µM.

For the compound `CN1CCN(CCCNC(=O)c2cn3c4c(c(NCCCN5CCOCC5)c(F)cc4c2=O)Oc2c-3ccc3ccccc23)CC1` [compound 127], the IC50 is 1.75 µM.

For `CN(CCCNc1c(F)cc2c(=O)c(C(=O)NCCC3CCCN3C)cn3c2c1Oc1cc2ccccc2cc1-3)c1ccccc1` (centres unmarked) [compound 263], the IC50 was determined as 1.75 µM.

For the compound `NC1CCN(c2c(F)cc3c(=O)c(C(=O)NC4CCN(Cc5ccccc5)CC4)cn4c3c2Oc2cc3ccccc3cc2-4)C1` (centres unmarked) [compound 245], the IC50 was determined as 1.75 µM.

As to `CN1CCN(CCCNC(=O)c2cn3c4c(c(N5CC[C@@H](NC(=O)CCN6CCN(C)CC6)C5)c(F)cc4c2=O)Oc2cc4c(cc2-3)oc2ccccc24)CC1` [compound 173], the IC50 came to 1.75 µM.

For the compound `CN1CCCC1CCNC(=O)c1cn2c3c(c(N4CCC(NC(=O)OC(C)(C)C)C4)c(F)c(N)c3c1=O)Oc1cc3ccccc3cc1-2` (centres unmarked) [compound 225], the IC50 worked out at 1.75 µM.

On to `CN(C)CCCCNCCC(=O)N[C@@H]1CCN(c2c(F)cc3c(=O)c(C(=O)NCCCN4CCN(C)CC4)cn4c3c2Oc2cc3c(cc2-4)oc2ccccc23)C1` [compound 588], for which the IC50 turned out to be 0.18 µM.

In the case of `N=C(N)NCCCCNC(=O)c1cn2c3c(c(NCCCN4CCOCC4)c(F)cc3c1=O)Oc1cc3ccccc3cc1-2` [compound 330], the IC50 is 1 µM.

As to `CCCCN(CCCC)CCCNc1c(F)cc2c(=O)c(C(=O)N3CCOCC3)cn3c2c1Oc1cc2ccccc2cc1-3` [compound 45], the IC50 is 2.5 µM.

`CN1CCCC1CCNC(=O)c1cn2c3c(c(Nc4ccccc4N4CCOCC4)c(F)cc3c1=O)Oc1cc3ccccc3cc1-2` (centres unmarked) [compound 264]: the IC50 is 1.75 µM.

On to `CN1CCC[C@H]1CCNC(=O)c1cn2c3c(c(N4CCC(c5cnccn5)C4)c(F)cc3c1=O)Oc1cc3ccccc3cc1-2` (some centres unmarked) [compound 355], for which the IC50 stood at 0.89 µM.

For the compound `Nc1ccc2[nH]c3cc4oc5c(N6CC[C@H](N)C6)c(F)cc6c(=O)c(C(=O)O)cn(c4cc3oc2c1)c56` [compound 11], the IC50 stood at 1.75 µM.

For `CN1CCN(CCCNC(=O)c2cn3c4c(c(NCCN5CCOCC5)c(F)cc4c2=O)Oc2cc4ccccc4cc2-3)CC1` [compound 55], the IC50 was determined as 2.5 µM.

In the case of `Nc1ccc(CCNC(=O)c2cn3c4c(c(N5CCC(N)C5)c(F)cc4c2=O)Oc2cc4ccccc4cc2-3)cc1` (centres unmarked) [compound 193], the IC50 amounted to 1.75 µM.

Turning to `CN(C)CC(C)(C)CNC(=O)c1cn2c3c(c(N4CCC(N)C4)c(F)cc3c1=O)Oc1cc3ccccc3cc1-2` (centres unmarked) [compound 329], the IC50 amounted to 1 µM.

In the case of `O=C(NCCN1CCCC1)c1cn2c3c(c(NCCN4CCOCC4)c(F)cc3c1=O)Oc1cc3c(cc1-2)oc1ccccc13` [compound 148], the IC50 worked out at 1.75 µM.

On to `CN1CCN(CCCNC(=O)c2cn3c4cc5c(cc4oc4c(N6CC[C@H](NC(=O)OC(C)(C)C)C6)c(F)cc(c2=O)c43)c(=O)c2ccccc25)CC1` [compound 427], for which the IC50 was found to be 0.75 µM.

For the compound `CC(C)(C)OC(=O)NC1CCN(c2c(F)c(N)c3c(=O)c(C(=O)O)cn4c3c2Oc2cc3ccccc3cc2-4)C1` (centres unmarked) [compound 15], the IC50 is 1.75 µM.

Regarding `CN1CCCC1CCNC(=O)c1cn2c3c(c(NCCCO)c(F)cc3c1=O)Oc1cc3ccccc3cc1-2` (centres unmarked) [compound 293], the IC50 was determined as 1.75 µM.

With `CC1(C)CC(NC(=O)c2cn3c4c(c(NCCN5CCCC5)ccc4c2=O)Oc2cc4ccccc4cc2-3)CC(C)(C)N1` [compound 447], the IC50 came out at 0.75 µM.

As to `CN1CCCC1CCNC(=O)c1cn2c3c(c(N4CCC(c5ccccn5)C4)c(F)cc3c1=O)Oc1cc3ccccc3cc1-2` (centres unmarked) [compound 442], the IC50 came to 0.75 µM.

As for `N[C@@H]1CCN(C(=O)c2cn3c4c(c(NCCN5CCOCC5)c(F)cc4c2=O)Oc2c-3ccc3ccccc23)C1` [compound 84], the IC50 is 2.5 µM.

In the case of `CN1CCN(CCCNc2ccc3c(=O)c(C(=O)NCCN4CCOCC4)cn4c3c2Oc2cc3ccccc3cc2-4)CC1` [compound 279], the IC50 came to 1.75 µM.

Take `CN1CCN(CCCNc2c(F)cc3c(=O)c(C(=O)NCCCN4CCOCC4)cn4c3c2Oc2cc3ccccc3cc2-4)CC1` [compound 119]: the IC50 stood at 1.75 µM.

For `O=C(NCCCn1ccnc1)c1cn2c3c(c(NCCCN4CCOCC4)c(F)cc3c1=O)Oc1cc3c(cc1-2)oc1ccccc13` [compound 313], the IC50 was found to be 1 µM.

In the case of `Nc1c(F)c(NCCCN2CCOCC2)c2c3c1c(=O)c(C(=O)NCCCN1CCOCC1)cn3-c1cc3ccccc3cc1O2` [compound 218], the IC50 is 1.75 µM.

Turning to `CC(C)(C)OC(=O)N[C@@H]1CCN(c2c(F)cc3c(=O)c(C(=O)NCCN4CCOCC4)cn4c3c2Oc2cc3ccccc3cc2-4)C1` [compound 63], the IC50 worked out at 2.5 µM.

In the case of `CN(C)CCCCNC(=O)c1cn2c3c(c(NCCN4CCOCC4)c(F)cc3c1=O)Oc1cc3ccccc3cc1-2` [compound 59], the IC50 stood at 2.5 µM.

As for `CCN(CC)CCNc1c(F)cc2c(=O)c(C(=O)N3CCOCC3)cn3c2c1Oc1cc2ccccc2cc1-3` [compound 305], the IC50 was determined as 1.05 µM.

As for `Cc1ncn(C(=O)c2cn3c4c(c(N5CCC(NC(=O)OC(C)(C)C)C5)c(F)cc4c2=O)Oc2cc4ccccc4cc2-3)c1CO` (centres unmarked) [compound 187], the IC50 worked out at 1.75 µM.

As to `CN1CCN(CCCNc2c(F)cc3c(=O)c(C(=O)NCCC4CCCN4C)cn4c5cc6c(=O)c7ccccc7c(=O)c6cc5oc2c34)CC1` (centres unmarked) [compound 349], the IC50 was found to be 0.9 µM.
